Source: patent US20150126465A1, “PROCESS FOR PRODUCING DERIVATIVES OF PYROSTEGIA VENUSTA, DERIVATIVES OF PYROSTEGIA VENUSTA, PHARMACEUTICAL COMPOSITIONS AND ITS USES” (priority 2011, published 2015)
≈ marks a conversion by molar mass, not a printed value. Like-named read-outs stand apart in the source and are kept apart here.

Columns and labels:
Assay type in all cases: cell-based
Candida krusei USP 2223 = assay: MIC by microdilution (CLSI M27-A2); conditions: Pichia kudriavzevii, USP2223, read-out: MIC
[1] = tested on: Candida tropicalis USP 1658; assay: MIC by microdilution (CLSI M27-A2); conditions: Candida tropicalis, USP1658; Table 12, C. tropicalis USP 1658, 48 h, 35° C.; read-out: MIC
[2] = tested on: Microsporum canis ATCC 32903; assay: MIC by microdilution, filamentous fungi (CLSI M38-A); conditions: ATCC32903, 168 h; Table 13, Microsporum canis ATCC 32903, 7 days, 28° C.; read-out: MIC
Protocol: (§1) Pure substances termed P1 and P2 previously dissolved in 20% DMSO, were diluted in RPMI medium, with final concentrations of 96 μg.mL-1. […] Cultures of filamentous fungi described below were inoculated in Agar-Batata Dextrose medium and inoculated for 7 days, at 28° C. Colonies of cultures inoculated for 7 days in an oven at 28° C. were shrouded with 0.85% saline solution, scraped and then transferred to conical tubes. After resting for 5 minutes, the supernatant was transferred to new conical tubes for subsequent quantification in spectrophotometer, at 530 nm, with the transmittance adjustment of 80-82% for A. niger and 70% for other microorganisms. After adjustment, there was a 1:50 dilution in RPM. The determination of Minimum Inhibitory Concentration was performed after 7 days, at 28° C. After the incubation period, aliquots of 96-well plates were transferred to Petri plates with Potato Dextrose Agar, to determine the Minimum Fungicidal Concentration. Plates were inoculated for more 7 days, at 28° C.

[3] = tested on: Trichophyton menthagrophyton ATCC 9533; assay: as above; conditions: ATCC9533, 168 h; Table 13, Trichophyton menthagrophyton ATCC 9533, 7 days, 28° C.; read-out: MIC
Protocol: as §1

[4] = tested on: Phomopsis longicolla (soy isolate); assay: as above; conditions: Diaporthe longicolla, 168 h; Table 13, Phomopsis longicolla- soy, 7 days, 28° C.; read-out: MIC
Protocol: as §1

Candida glabrata ATCC = assay: MIC/CFM against Candida sp. strains; conditions: Nakaseomyces glabratus, Table 14, Candida glabrata ATCC
[5] = tested on: Candida guilhermondii USP; assay: MIC/CFM by microdilution (CLSI M27-A2); conditions: for MIC: read-out: MIC
[6] = tested on: Candida parapsilosis USP 1933; assay: MIC/CFM by microdilution (CLSI M27-A2); conditions: Lodderomyces parapsilosis, USP1933; for MIC: read-out: MIC
[7] = tested on: Candida tropicalis USP B3; assay: MIC by microdilution (CLSI M27-A2); conditions: Candida tropicalis, USPB3; Table 14, C. Tropicalis UPS B3; read-out: MIC
[8] = tested on: Candida albicans ATCC 10231; assay: MIC/CFM by microdilution (CLSI M27-A2); conditions: Candida albicans, ATCC10231; for MIC: read-out: MIC
[9] = tested on: Candida parapsilosis ATCC 22019; assay: MIC/CFM by microdilution (CLSI M27-A2); conditions: Lodderomyces parapsilosis, ATCC22019; for MIC: read-out: MIC
C. Albicans USP 2 = assay: MIC/CFM against Candida sp. strains
[10] = tested on: Candida albicans OF-M3-20; assay: MIC/CFM by microdilution (CLSI M27-A2); conditions: Candida albicans, OFM320; for MIC: read-out: MIC
Protocol: (§2) Pure substances termed P1 and P2 previously dissolved in 20% DMSO, were diluted in RPMI medium, with final concentrations of 96 μg.mL-1. […] The same was also tested individually, diluted in RPMI medium, with initial concentration of 1 μL.mL-1. […] Cultures of Candida sp. were prepared and standardized in […] saline solution at 0.85%. For inoculums standardization, a spectrophotometer equipment was used, with wavelength at 530 nm and absorbance adjustment between 0.130 and 0.150, having as white the saline solution free of inoculum or any other contaminant, corresponding to concentrations of 10^6 CFU/mL. In this condition the inoculum “mother” was diluted 50 times and from this inoculum “child” the dilution was performed 20 times to obtain a standard inoculum in 10^3 cells per well. […] To aid in the growth view, were added to the wells dye 50 μL 2,3,5-triphenyltetrazolium chloride (TTC) at 5 mg.mL “1, being performed the readings after 4 hours of incubation. Prior to the addition of dye, aliquots of 96-well plate were transferred to Petri with Agar-Sabouraud Dextrose to determine the Minimum Fungicidal Concentration. Plates were incubated for 24 hours at 35° C.

Candida albicans USP 1 = assay: MIC/CFM by microdilution (CLSI M27-A2); conditions: Candida albicans, USP1; for MIC: read-out: MIC
Protocol: as §2

[11] = tested on: Candida albicans OF-M7-19; assay: MIC/CFM by microdilution (CLSI M27-A2); conditions: Candida albicans, OFM719; for MIC: read-out: MIC
Protocol: as §2

Candida krusei ATCC 6258 = assay: MIC/CFM by microdilution (CLSI M27-A2); conditions: Pichia kudriavzevii, ATCC6258, read-out: MIC

Compound: Clc1ccc(COC(Cn2ccnc2)c2ccc(Cl)cc2Cl)c(Cl)c1 (stereo not shown) [Miconazol]
- MIC (Candida krusei USP 2223; Table 12, C. krusei USP 2223, 48 h, 35° C.): 1 µg/mL (≈ 2.4 µM)
- MIC (Candida krusei USP 2223; Table 14, C. krusei USP 2223): 4 µg/mL (≈ 9.61 µM)
- MIC [1]: < 2 µg/mL
- MIC [2]: 2 µg/mL (≈ 4.81 µM)
- MIC [3]: 2 µg/mL (≈ 4.81 µM)
- MIC [4]: < 0.125 µg/mL
- MIC (Candida glabrata ATCC): < 0.5 µg/mL
- MFC (Candida glabrata ATCC; read-out: CFM (Minimum Fungicidal Concentration)): 2 µg/mL (≈ 4.81 µM)
- MIC ([5]; Candida, Table 12, C. guilhermondii USP, 48 h, 35° C.): 2 µg/mL (≈ 4.81 µM)
- MFC ([5]; Table 14, Candida guilhermondi USPATCC, read-out: CFM (Minimum Fungicidal Concentration)): 1 µg/mL (≈ 2.4 µM)
- MIC ([5]; Table 14, Candida guilhermondi USPATCC): 1 µg/mL (≈ 2.4 µM)
- MIC ([6]; Table 12, C. parapsilosis USP 1933, 48 h, 35° C.): 1 µg/mL (≈ 2.4 µM)
- MFC ([6]; Table 14, C. parapsilosis USP 1933 ATCC, read-out: CFM (Minimum Fungicidal Concentration)): < 0.5 µg/mL
- MIC ([6]; Table 14, C. parapsilosis USP 1933 ATCC): < 0.5 µg/mL
- MIC [7]: < 0.5 µg/mL
- MIC ([8]; Table 12, C. albicans ATCC 10231, 48 h, 35° C.): 4 µg/mL (≈ 9.61 µM)
- MFC ([8]; Table 14, C. Albicans ATCC 10231, read-out: CFM (Minimum Fungicidal Concentration)): 1 µg/mL (≈ 2.4 µM)
- MIC ([8]; Table 14, C. Albicans ATCC 10231): < 0.5 µg/mL
- MIC ([9]; Table 12, C. parapsilosis ATCC 22019, 48 h, 35° C.): 1 µg/mL (≈ 2.4 µM)
- MFC ([9]; Table 14, C. parapsilosis ATCC 22019, read-out: CFM (Minimum Fungicidal Concentration)): 1 µg/mL (≈ 2.4 µM)
- MIC ([9]; Table 14, C. parapsilosis ATCC 22019): 1 µg/mL (≈ 2.4 µM)
- MIC (C. Albicans USP 2; Table 14, C. Albicans USP 2): < 0.5 µg/mL
- MFC (C. Albicans USP 2; Table 14, C. Albicans USP 2, read-out: CFM (Minimum Fungicidal Concentration)): < 0.5 µg/mL
- MIC ([10]; Table 12, C. albicans OF M3-20, 48 h, 35° C.): < 0.125 µg/mL
- MFC ([10]; Table 14, C. Albicans OF M3-20, read-out: CFM (Minimum Fungicidal Concentration)): < 0.5 µg/mL
- MIC ([10]; Table 14, C. Albicans OF M3-20): < 0.5 µg/mL
- MIC (Candida albicans USP 1; Table 12, C. albicans USP 1, 48 h, 35° C.): < 0.125 µg/mL
- MFC (Candida albicans USP 1; Table 14, C. Albicans USP 1, read-out: CFM (Minimum Fungicidal Concentration)): 4 µg/mL (≈ 9.61 µM)
- MIC (Candida albicans USP 1; Table 14, C. Albicans USP 1): 1 µg/mL (≈ 2.4 µM)
- MIC ([11]; Table 12, C. albicans OF M7-19, 48 h, 35° C.): < 0.125 µg/mL
- MFC ([11]; Table 14, C. Albicans OF M7-19, read-out: CFM (Minimum Fungicidal Concentration)): < 0.5 µg/mL
- MIC ([11]; Table 14, C. Albicans OF M7-19): < 0.5 µg/mL
- MIC (Candida krusei ATCC 6258; Table 12, C. krusei ATCC 6258, 48 h, 35° C.): < 1 µg/mL
- MIC (Candida krusei ATCC 6258; Table 14, C. krusei ATCC): 1 µg/mL (≈ 2.4 µM)
